Assay results: patent US20230142981A1, “METHOD FOR IDENTIFING A MARKER FOR A BIOLOGICAL INTERACTION” (ARPEGGIO BIOSCIENCES, INC., priority 2020, published 2023)

Legend:
[1] = system: lung fibroblast cell line IMR90; experiment: nascent RNA sequencing of IMR90 cells exposed to GPX4 inhibitors; assay type: cell-based; settings: IMR90, 1 μM, 1 hour, Pval 10^−3
Procedure: (§1) To assess the transcriptional response of a cell to inhibition of GPX4, we exposed two cell lines to two different chemical inhibitors of GPX4 (ML162 and RSL3; available from Sigma Aldrich and Apex Bio respectively) and examined the transcriptional responses using a nascent RNA sequencing protocol. Briefly, a fibrosarcoma cell line HT-1080 and a lung fibroblast cell line IMR90 were exposed to 1 μM ML162 or 1 μM RSL3 for 1 hour and the nascent RNA sequencing protocol was performed.

[2] = system: HMOX1; experiment: RT-qPCR assay of HMOX1 expression in A673 cells; assay type: cell-based; settings: A673, 1 μM; for relative expression of HMOX1 in the absence of ferrostatin-1: four hours, relative to ACTB
Procedure: (§2) To confirm HMOX1 induction by the GPX4 inhibitors, an RT-qPCR assay was performed using three ferroptosis sensitive cancer cell lines: the fibrosarcoma cell line HT-1080, a Ewing's sarcoma cell line A673, and a renal clear cell carcinoma cell line 786-O. Briefly, cells were exposed to 1 μM ML162 or 1 μM RSL3 for 4 hours, RNA was isolated and an RT-qPCR assay was performed.
(§3) Briefly, HT-1080, A673, and 786-O cells were exposed to 1 μM ML162 or 1 μM RLS3 with or without 1 μM ferrostatin-1 for four hours, RNA was isolated and an RT-qPCR assay was performed to quantify HMOX1 expression. DMSO was used as a control exposure.

[3] = system: fibrosarcoma cell line HT-1080; experiment: nascent RNA sequencing of HT-1080 cells exposed to GPX4 inhibitors; assay type: cell-based; settings: 1 hour; for number of genes with significant changes in gene transcription: 1 μM, HT-1080 compared with IMR90; for HMOX1 differential expression (nascent RNA sequencing): HT-1080, 1 μM, Pval<10^−2
Procedure: as §1

[4] = system: HMOX1; experiment: RT-qPCR assay of HMOX1 expression in HT-1080 cells; assay type: cell-based; settings: for relative expression of HMOX1 in the absence of ferrostatin-1: HT-1080, 1 μM, four hours; for effect of ferrostatin-1 on induction of HMOX1: HT-1080, sodium arsenite 80 μM, hemin 5 μM, RSL3 1 μM, with or without 1 μM ferrostatin-1, four hours, normalized to DMSO control
Procedure: as §2
To further validate induction of HMOX1 mRNA expression by GPX4 inhibition, RT-qPCR was performed using varying doses of the RSL3 inhibitor. Briefly, HT-1080 cells were exposed to 5 μM RSL3, 1 μM RSL3, and 0.2 μM RSL3 for four hours, RNA was isolated and an RT-qPCR assay was performed to quantify HMOX1 expression. DMSO was used as a control exposure.
as §3
Sodium arsenite and hemin are known to be inducers of general oxidative stress in cells. Briefly, HT-1080 cells were exposed to sodium arsenite (80 μM), hemin (5 μM), ML162 (1 μM), or RSL3 (1 μM) with or without 1 μM ferrostatin-1 for four hours, RNA was isolated and an RT-qPCR assay was performed to quantify HMOX1 expression. DMSO was used as a control exposure.

[5] = system: HMOX1; experiment: RT-qPCR assay of HMOX1 expression in 786-O cells; assay type: cell-based; settings: 1 μM; for relative expression of HMOX1 in the absence of ferrostatin-1: four hours, relative to ACTB
Procedure: as §2, §3

[6] = system: 786-O; settings: cells treated with small molecules that induce lipid peroxidation; cited from earlier work
[7] = system: A673; settings: A673, cells treated with small molecules that induce lipid peroxidation; cited from earlier work
[8] = system: HT-1080; settings: HT-1080, cells treated with small molecules that induce lipid peroxidation; cited from earlier work
[9] = system: breast cancer cell line (MCF7); experiment: steady state RNA-seq of MCF7 cells after estradiol treatment; assay type: cell-based; settings: MCF7, 100 nM estradiol, 15 minutes, pval 10^−3
Procedure: (§4) To assess the sensitivity and dynamic range of the nascent RNA sequencing assay in gauging a cellular response to a stimulus, the performance of a steady state RNA-seq protocol was compared against a nascent RNA sequencing protocol using a breast cancer cell line (MCF7) model and estrogen treatment to elicit a well characterized, widespread transcriptional response driven by ERα and ERβ transcription factors. Briefly, cell cultures were treated with 100 nM estradiol for 15 minutes or left untreated (i.e., untreated controls) and a steady state RNA-seq protocol or the nascent RNA sequencing assay described herein above was performed.

[10] = system: breast cancer cell line (MCF7); experiment: nascent RNA sequencing (SNAP-seq) of MCF7 cells after estradiol treatment; assay type: cell-based; settings: MCF7, 100 nM estradiol, 15 minutes, significance threshold pval 10^−3
Procedure: as §4

[11] = 4 hours, normalized to DMSO control, n=2

Compound | HMOX1 differential expression (nascent RNA sequencing) [1] | relative expression of HMOX1 in the absence of ferrostatin-1 [2] | number of genes with significant changes in gene transcription [3] | HMOX1 differential expression (nascent RNA sequencing) [3] | relative expression of HMOX1 in the absence of ferrostatin-1 ([4]; relative to ACTB) | effect of ferrostatin-1 on induction of HMOX1 [4] | relative expression of HMOX1 in the absence of ferrostatin-1 [5] | also measured
COC(=O)c1ccc([C@@H]2c3[nH]c4ccccc4c3C[C@@H](C(=O)OC)N2C(=O)CCl)cc1 [RSL3] | strongly differentially expressed | HMOX1 expression was observed | greater in the HT-1080 cell line relative to the IMR90 cell line | strongly differentially expressed | HMOX1 expression was observed | dependent on lipid peroxidation | HMOX1 expression was observed | –
O=[As]O [sodium arsenite] | – | – | – | – | – | not affected by the presence of ferrostatin-1 | – | –
hemin | – | – | – | – | – | not affected by the presence of ferrostatin-1 | – | –
COc1ccc(N(C(=O)CCl)C(C(=O)NCCc2ccccc2)c2cccs2)cc1Cl (stereo not drawn) [ML162] | strongly differentially expressed | HMOX1 expression was observed | greater in the HT-1080 cell line relative to the IMR90 cell line | strongly differentially expressed | HMOX1 expression was observed | – | HMOX1 expression was observed | fold induction for HMOX1 mRNA [2, 11]: induced; fold induction for HMOX1 mRNA ([4]; 1 µM): induced; relative expression of HMOX1 in the presence of ferrostatin-1 ([4]; HT-1080, 1 μM with 1 μM ferrostatin-1, four hours, relative to ACTB): induced HMOX1 even in the presence of ferrostatin-1; fold induction for HMOX1 mRNA [5, 11]: induced
CCOC(=O)c1ccc(NC2CCCCC2)c(N)c1 [ferrostatin-1] | – | – | – | – | – | – | – | rescue of cellular viability (ferroptosis-protective effect) [6]: ferroptosis-protective effect has been observed; rescue of cellular viability (ferroptosis-protective effect) [7]: ferroptosis-protective effect has been observed; rescue of cellular viability (ferroptosis-protective effect) [8]: ferroptosis-protective effect has been observed
C[C@]12CC[C@@H]3c4ccc(O)cc4CC[C@H]3[C@@H]1CC[C@@H]2O [estradiol] | – | – | – | – | – | – | – | number of differentially expressed genes (estradiol/untreated), steady-state RNA-seq [9]: 8; number of differentially expressed genes (estradiol/untreated), nascent RNA sequencing (SNAP-seq) [10]: 762
